“Also recorded” adds a separate entry of the source.
What was measured:
[1] = tested on: patients with chronic tension-type headache; assay: Pressure pain detection thresholds (electronic pressure algometer) after L-NMMA; format: in vivo, human
From the text: (§1) Sixteen patients with a diagnosis of chronic tension-type headache according to the criteria of the International Headache Society (Headache Classification Committee 1988) were included (Table XVII). Five of the patients had coexisting infrequent migraine (<four days/year). The patients were recruited from the out-patient headache clinic at Glostrup University Hospital without respect to presence or absence of myofascial tenderness. All patients underwent a general physical and a neurological examination and completed a diagnostic headache diary during a 4-week run-in period (Russell et al. 1992). […]
(§2) The recordings were performed in a standardized manner by the same observer, a trained technician (HA), throughout the study. All parameters were recorded at baseline, 60 and 120 minutes after start of infusion. […] Headache intensity was measured on a 100 mm Visual Analog Scale (VAS) (0-no headache and 100-worst imaginable headache) before, during and after start of infusion.
Pressure pain thresholds Pressure pain detection thresholds (PPDTs) were measured at the dorsum of the second finger (middle phalanx) and at a fixed point at the anterior part of the temporal muscle as previously described (Bendtsen et al. 1996b). […] Each threshold was calculated as the mean of five consecutive determinations performed with intervals of approximately 30 seconds. […]

[2] = tested on: trapezius muscle of patients with chronic tension-type headache; assay: Muscle hardness of the trapezius muscle (hardness meter) after L-NMMA; format: in vivo, human; details: 6 mg/kg i.v.
From the text: as §1
Muscle hardness. The muscle hardness of the trapezius muscle was measured with a hardness meter, which has previously been described in detail (Horikawa et al. 1993). […]
as §2
Muscle hardness. The muscle hardness was measured at a standard anatomical point on the trapezius muscle On the non-dominant side, as previously described (Ashina et al. 1998b). […] The muscle hardness was calculated as the mean of five consecutive determinations. […]

## CN=C(N)NCCC[C@H](N)C(=O)O.Cl [L-NMMA, L-N^G methyl arginine hydrochloride]
[1]; finger and temporal region, hydrochloride
  PPDTs compared with pre-treatment values: no changes in PPDTs at 60 and 120 minutes; also recorded: largely unchanged
[1]; finger p=0.78, temporal region p=0.77
  PPDTs compared with placebo: no significant difference
[2]; p=0.04, hydrochloride
  Muscle hardness (summary score) compared with placebo: significantly more reduced; also recorded: reduces muscle hardness; also recorded: reduced significantly more; also recorded: significantly reduced
[2]; p=0.04 and p<0.05
  Muscle hardness compared with baseline: significantly reduced at 60 and 120 minutes

From patent publication US6649605B2, “Treatment of tension-type headaches with NMDA receptor antagonists” (Head Explorer A/S, priority 1996, dated 2003)
